The values that follow come from US20260191849A1, “PHARMACEUTICAL COMPOSITION FOR TREATMENT OF CANCER” (WIGEN BIOMEDICINE TECHNOLOGY (SHANGHAI) CO., LTD., priority 2022, published 2026).

In general, IC50 refers to the concentration that gives 50% inhibition.

Where two headings read alike, the source gives them in different places. A value given as a limit tells only on which side of the number the result lay.

The test system of assay [1] is HT29 subcutaneous xenograft tumors. Put plainly: In vivo pharmacodynamic study of combination therapy, HT29 subcutaneous xenograft tumor model of mice (Biological Example 14). Also noted: species or system BALB/c nude mice. The text has this:
BALB/c nude mice were each inoculated subcutaneously with 5×10^6 HT29 cells on the left dorsal side. After the tumors grew to 100-150 mm^3, the mice were randomly divided into the following groups for intragastric administration once daily for 14 consecutive days: group 1: vehicle control group; group 2: AMG650 (50 mpk, PO, QD); group 3: compound 714 (50 mpk, PO, QD); group 4: AMG650 (50 mpk, PO, QD)+Onvasertib (20 mpk, PO, QD); group 5: compound 714 (50 mpk, PO, QD)+Onvasertib (20 mpk, PO, QD); and group 6: Onvasertib (20 mpk, PO, QD). The administration to all the groups was stopped on day 15, and the tumor growth continued to be observed until day 21. The tumor volume was measured twice weekly and at the end of administration. […]

Assay [2] relates to HCT116 cells. Put plainly: Combined use of compound 257, AMG650 or Compound A with PLK1 inhibitor on HCT116 cell viability, 168 h (Biological Example 20). The class given is cell-based. Here is the method: HCT116 cells were seeded on a 384-well plate at 3000 cells/well. After overnight adherence culture, DMSO or compound 257, AMG650, or Compound A serially diluted in a 1:5 ratio from 400 nM and a PLK1 inhibitor with a specified concentration were added. The cell viability was assessed 168 h after dosing by measuring the intracellular ATP content. The inhibition percentages of viable cells by the compounds were calculated by comparing with the DMSO group, and the IC50 values were also calculated.

Assay [3] concerns HT29 cells. Put plainly: Combined use of compound 257, AMG650 or Compound A with PLK1 inhibitor on HT29 cell viability, 168 h (Biological Example 19). It counts as cell-based. The settings on record: for IC50: HT29 cells. Here is the method:
HT29 cells were seeded on a 384-well plate at 3000 cells/well.

Assay [4] has as its system HT29 cells. Kind of assay: Combined use of compound 257 or AMG650 with PLK1 inhibitor (Volasertib) on HT29 cell viability, 168 h (Biological Example 22). It counts as cell-based. The note with it: Homo sapiens, HT-29, 168 h, HT29 cells, 168 h, read-out: Volasertib IC50. On the procedure: HT29 cells were seeded on a 384-well plate at 3000 cells/well. After overnight adherence culture, DMSO or compound 257 or AMG650 serially diluted in a 1:5 ratio from 400 nM and a PLK1 inhibitor with a specified concentration were added. The cell viability was assessed 168 h after dosing by measuring the intracellular ATP content. […] Furthermore, interactions between the drugs were also analyzed using the BLISS independence model, and the results are shown in FIG. 15 and FIG. 16.

Assay [5] relates to SK-OV-3 cells. Put plainly: Combined use of compound 257 or AMG650 with PLK1 inhibitor on SK-OV-3 cell viability, 168 h (Biological Example 21). It counts as cell-based. The note with it: Homo sapiens, SK-OV-3, 168 h, SK-OV-3 cells, 168 h, read-out: Volasertib IC50. Here is the method: SK—OV-3 cells were seeded on a 384-well plate at 3000 cells/well. After overnight adherence culture, DMSO or compound 257 or AMG650 serially diluted in a 1:5 ratio from 400 nM and a PLK1 inhibitor with a specified concentration were added. The cell viability was assessed 168 h after dosing by measuring the intracellular ATP content. […] Furthermore, interactions between the drugs were also analyzed using the BLISS independence model, and the results are shown in FIG. 11 and FIG. 12.

Where [6] appears, read: PO QD 14 days, AMG650/714 50 mpk, Onvasertib 20 mpk, day 15.
[7] abbreviates: KIF18A inhibitor AMG650 0.0001 nM.
Where [8] appears, read: KIF18A inhibitor AMG650 0.64 nM.
Setting [9] is: KIF18A inhibitor Compound 257 0.0001 nM.
The mark [10] stands for this setting: KIF18A inhibitor Compound 257 0.64 nM.
[11] abbreviates: KIF18A inhibitor Compound 257 3.2 nM.
Setting [12] is: KIF18A inhibitor Compound 257 16 nM.
Where [13] appears, read: KIF18A inhibitor Compound 257 80 nM.
Setting [14] is: KIF18A inhibitor Compound 257 400 nM.

Turning to `CN1CCN(c2ccc(OC(F)(F)F)c(Nc3ncc4c(n3)-c3c(c(C(N)=O)nn3CCO)CC4)c2)CC1` [Onvasertib, Onvansertib], the “Tumor volume on day 1 of administration” value in assay [1] (PO QD 14 days, AMG650/714 50 mpk, Onvasertib 20 mpk, day 1 (baseline)) stood at 134 mm^3. For the same compound, in assay [1] (setting [6]), the “TGI on day 15” value was found to be 80% and the “Tumor volume on day 15 of administration” value came to 249 mm^3. In addition, the “therapeutic efficacy of monotherapy in HT29-bearing mice” value in assay [1] (monotherapy, in words) is reported as “relatively weak therapeutic efficacy”.
Take `CCS(=O)(=O)Nc1ccc2c(c1)C1(CCC3(CC3)CC1)CN2C(=O)c1cccc(S(=O)(=O)NC(C)(C)C)c1` [Compound A]: the “synergistic effect on HCT116 cell viability, combined use with the PLK1 inhibitor” value in assay [2] (CYC140 or TAK-960, in words) is given as “no significant synergistic effect”. For the same compound, the IC50 is over 400 nM in assay [2] (HCT116 cells, CYC140 (Plogosertib) 1.6 nM); over 400 nM in assay [2] (HCT116 cells, CYC140 (Plogosertib) 8 nM); over 400 nM in assay [2] (HCT116 cells, CYC140 (Plogosertib) 40 nM); over 400 nM in assay [2] (HCT116 cells, TAK-960 0 nM); over 400 nM in assay [2] (HCT116 cells, TAK-960 1.6 nM); over 400 nM in assay [2] (HCT116 cells, TAK-960 8 nM). Also, the IC50 in assay [2] (HCT116 cells, TAK-960 40 nM) is over 400 nM; in assay [2] (Homo sapiens, HCT-116, HCT116 cells, CYC140 (Plogosertib) 0 nM), over 400 nM; in assay [3] (Homo sapiens, HT-29, 168 h, CYC140 (Plogosertib) 0.0001 nM, read-out: IC50), 26.1 nM; in assay [3] (Homo sapiens, HT-29, 168 h, CYC140 (Plogosertib) 1.6 nM, read-out: IC50), 19.6 nM; in assay [3] (Homo sapiens, HT-29, 168 h, CYC140 (Plogosertib) 8 nM, read-out: IC50), 15.5 nM; in assay [3] (Homo sapiens, HT-29, 168 h, CYC140 (Plogosertib) 40 nM, read-out: IC50), 2.2 nM. Also, the IC50 in assay [3] (Homo sapiens, HT-29, 168 h, TAK-960 0.0001 nM, read-out: IC50) is 23.8 nM; in assay [3] (Homo sapiens, HT-29, 168 h, TAK-960 1.6 nM, read-out: IC50) it was 17.3 nM; in assay [3] (Homo sapiens, HT-29, 168 h, TAK-960 8 nM, read-out: IC50) it was 4.2 nM; in assay [3] (Homo sapiens, HT-29, 168 h, TAK-960 40 nM, read-out: IC50), 4.1 nM. For the same compound, the “anti-proliferative activity against HCT116 cells, monotherapy” value in assay [2] (in words) was “did not exhibit anti-proliferative activity”. Moreover, in assay [3] (CYC140 or TAK-960, in words), the “inhibitory effect on HT-29 cells, combined use with the PLK1 inhibitor compared with monotherapy” value is given as “stronger inhibitory effect”.
Turning to `CC[C@@H]1C(=O)N(C)c2cnc(Nc3ccc(C(=O)N[C@H]4CC[C@H](N5CCN(CC6CC6)CC5)CC4)cc3OC)nc2N1C(C)C` [Volasertib], the IC50 worked out at 22.8 nM in assay [4] (setting [7]); 37.8 nM in assay [4] (setting [8]); 34.9 nM in assay [4] (KIF18A inhibitor AMG650 3.2 nM); 19.5 nM in assay [4] (KIF18A inhibitor AMG650 16 nM); 18.3 nM in assay [4] (KIF18A inhibitor AMG650 80 nM); 15.5 nM in assay [4] (KIF18A inhibitor AMG650 400 nM). For the same compound, the IC50 in assay [4] (setting [9]) turned out to be 17.2 nM; in assay [4] (setting [10]), 15.6 nM; in assay [4] (setting [11]) it was 10.2 nM; in assay [4] (setting [12]), 1.2 nM; in assay [4] (setting [13]) it was 1.4 nM; in assay [4] (setting [14]) it was 0.7 nM. For the same compound, the IC50 was 82.1 nM in assay [5] (setting [7]); 70.5 nM in assay [5] (setting [8]); 60.5 nM in assay [5] (KIF18A inhibitor AMG650 3.2 nM); 38.2 nM in assay [5] (KIF18A inhibitor AMG650 16 nM); 9.9 nM in assay [5] (KIF18A inhibitor AMG650 80 nM); 8.1 nM in assay [5] (KIF18A inhibitor AMG650 400 nM). Besides, the IC50 in assay [5] (setting [9]) came out at 77.9 nM; in assay [5] (setting [10]), 61.6 nM; in assay [5] (setting [11]) it was 35.8 nM; in assay [5] (setting [12]), 10.1 nM; in assay [5] (setting [13]), 5.7 nM; in assay [5] (setting [14]), 5.3 nM.
For the compound `COc1cc(C(=O)N[C@H]2CC[C@H](N3CCN(C)CC3)CC2)ccc1Nc1ncc2c(n1)N(C1CCCC1)CC1(CC1)C(=O)N2C` [CYC140 (Plogosertib), Plogosertib], the IC50 was 50.1 nM in assay [3] (KIF18A inhibitor AMG650 0.0001 nM, read-out: PLK1 inhibitor IC50); 48.9 nM in assay [3] (KIF18A inhibitor AMG650 0.64 nM, read-out: PLK1 inhibitor IC50); 49.9 nM in assay [3] (KIF18A inhibitor AMG650 3.2 nM, read-out: PLK1 inhibitor IC50); 24.9 nM in assay [3] (KIF18A inhibitor AMG650 16 nM, read-out: PLK1 inhibitor IC50); 7.9 nM in assay [3] (KIF18A inhibitor AMG650 80 nM, read-out: PLK1 inhibitor IC50); 3.5 nM in assay [3] (KIF18A inhibitor AMG650 400 nM, read-out: PLK1 inhibitor IC50). In addition, the IC50 in assay [3] (KIF18A inhibitor Compound 257 0.0001 nM, read-out: PLK1 inhibitor IC50) came out at 52.1 nM; in assay [3] (KIF18A inhibitor Compound 257 0.64 nM, read-out: PLK1 inhibitor IC50) it was 37 nM; in assay [3] (KIF18A inhibitor Compound 257 3.2 nM, read-out: PLK1 inhibitor IC50) it was 15.5 nM; in assay [3] (KIF18A inhibitor Compound 257 16 nM, read-out: PLK1 inhibitor IC50), 3.8 nM; in assay [3] (KIF18A inhibitor Compound 257 80 nM, read-out: PLK1 inhibitor IC50) it was 1.6 nM; in assay [3] (KIF18A inhibitor Compound 257 400 nM, read-out: PLK1 inhibitor IC50) it was 2.2 nM.
